According to PubChem BioAssay (NCI):
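Compound exposure: 48 hours, 5 concentrations, 96-well plates. GI50 marks 50% less growth. TGI denotes the concentration required for complete inhibition of growth.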

Experiments:
Experiment in all cases: growth of human tumour cells (NCI), 48 h
A498 renal = system: A498 renal
SK-MEL-5 melanoma = system: SK-MEL-5 melanoma
MCF7 breast = system: MCF7 breast
HL-60(TB) leukemia = system: HL-60(TB) leukemia
HT29 colon = system: HT29 colon
MDA-MB-231 breast = system: MDA-MB-231 breast
MALME-3M melanoma = system: MALME-3M melanoma
NCI-H522 lung = system: NCI-H522 lung
SNB-75 CNS = system: SNB-75 CNS
SK-MEL-28 melanoma = system: SK-MEL-28 melanoma

SMILES | TGI (A498 renal) | TGI (SK-MEL-5 melanoma) | TGI (MCF7 breast) | TGI (HL-60(TB) leukemia) | TGI (HT29 colon) | TGI (MDA-MB-231 breast) | TGI (MALME-3M melanoma) | TGI (NCI-H522 lung) | TGI (SNB-75 CNS) | TGI (SK-MEL-28 melanoma) | GI50 (A498 renal) | GI50 (SK-MEL-5 melanoma) | GI50 (MCF7 breast) | GI50 (HL-60(TB) leukemia) | GI50 (HT29 colon) | GI50 (MDA-MB-231 breast) | GI50 (MALME-3M melanoma) | GI50 (NCI-H522 lung) | GI50 (SNB-75 CNS) | GI50 (SK-MEL-28 melanoma)
CC(=O)Oc1c(C)c2c(c3ccccc13)OC(C)(C)C2 | 38.2 µM | 22.9 µM | 35.4 µM | 69.6 µM | 35 µM | 48.6 µM | 30 µM | 36.7 µM | 33.1 µM | 32.9 µM |  |  |  |  |  |  |  |  |  | 
COc1ccc(Nc2nc3ccccc3nc2C(=O)O)cc1OC | 75.1 µM | > 100 µM | > 100 µM | > 100 µM | > 100 µM | > 100 µM | > 100 µM | > 100 µM | > 100 µM | > 100 µM |  |  |  |  |  |  |  |  |  | 
N#Cc1c(-c2ccccc2)c(C#N)c(=O)n(C2OC(CO)C(O)C(O)C2O)c1S (centres undefined) | > 100 µM | > 100 µM | > 100 µM | > 100 µM | > 100 µM | > 100 µM | > 100 µM | > 100 µM | > 100 µM | > 100 µM |  |  |  |  |  |  |  |  |  | 
O=C1NC(S(=O)(=O)O)=NNC12c1ccccc1-c1ccccc12 |  | > 10 µM | > 10 µM | > 10 µM | > 10 µM | > 10 µM | > 10 µM | > 10 µM | > 10 µM | > 10 µM |  |  |  |  |  |  |  |  |  | 
CN(C)C(=O)C1CCN(Cc2c[nH]c3ccccc23)CC1 | > 100 µM | > 100 µM | > 100 µM | > 100 µM | > 100 µM | > 100 µM | > 100 µM | > 100 µM | > 100 µM | > 100 µM |  |  |  |  |  |  |  |  |  | 
O=C(N/N=C(/COc1cccc(Cl)c1)N=Cc1cccnc1)c1ccncc1 | > 100 µM |  | > 100 µM | > 100 µM | > 100 µM | > 100 µM | > 100 µM | > 100 µM | > 100 µM | > 100 µM |  |  |  |  |  |  |  |  |  | 
Cc1cc2c(cc1C)C(=O)/C(=N/Nc1ccc(F)cc1)CCO2 | > 100 µM | > 100 µM | > 100 µM | > 100 µM | > 100 µM | > 100 µM | > 100 µM | > 100 µM |  | > 100 µM |  |  |  |  |  |  |  |  |  | 
CCCCCCCCCc1c(O)c(O)c(CCCCCCCCC)c(CCCCCCCCC)c1CCCCCCCCC | > 100 µM | > 100 µM | > 100 µM | 50 µM | > 100 µM | > 100 µM | > 100 µM | > 100 µM |  | > 100 µM |  |  |  |  |  |  |  |  |  | 
NC(N)=NS(=O)(=O)c1ccc(NC(=O)c2ccc3[nH]c4ccccc4c(=O)c3c2)cc1 |  | > 100 µM | > 100 µM | > 100 µM | > 100 µM | > 100 µM | > 100 µM | > 100 µM | > 100 µM | > 100 µM |  |  |  |  |  |  |  |  |  | 
Nc1c(N2CCCCC2)c(=O)nc2[nH]/c(=C\c3ccccc3)c(=O)n12 | > 100 µM | > 100 µM | > 100 µM | > 100 µM | > 100 µM | > 100 µM | > 100 µM | > 100 µM | > 100 µM | > 100 µM |  |  |  |  |  |  |  |  |  | 
COc1ccc2c(CCNS(=O)(=O)c3ccccc3)c(C(C)=O)[nH]c2c1 | > 100 µM | > 68.1 µM | > 100 µM | > 100 µM | > 100 µM | > 100 µM | > 100 µM | > 100 µM | > 100 µM | > 100 µM |  |  |  |  |  |  |  |  |  | 
O=[N+]([O-])c1sc2ccc(Cl)cc2c1Nc1ccc(Cl)cc1 | > 100 µM | > 100 µM | > 100 µM | > 100 µM | > 100 µM | > 100 µM | > 100 µM | > 100 µM | > 100 µM | > 100 µM |  |  |  |  |  |  |  |  |  | 
COc1cc(C23OCC(Cc4cc5c(cc42)OCO5)C3CO)cc(OC)c1OC (centres undefined) | > 100 µM | > 100 µM | > 100 µM | > 50.1 µM | > 100 µM | > 84.4 µM | > 100 µM | 5.11 µM | > 100 µM | > 100 µM |  |  |  |  |  |  |  |  |  | 
COc1ccc2c(c1)C(N)=C(Cc1ccncc1)C2=O | > 100 µM | > 100 µM | > 100 µM | > 100 µM | > 100 µM | > 100 µM | > 100 µM | > 100 µM | > 100 µM | > 100 µM |  |  |  |  |  |  |  |  |  | 
c1ccc(C2=Nc3cccc4cccc(c34)N2)cc1 | > 100 µM | > 100 µM | > 69.4 µM | 8.14 µM | > 100 µM | 54.7 µM | > 77.6 µM | 24.8 µM | > 100 µM | > 100 µM |  |  |  |  |  |  |  |  |  | 
O=[N+]([O-])c1cccc2nc3ccccc3c(NCCCN3CCCCC3)c12 | < 0.0219 µM | 0.0221 µM | 0.11 µM | 0.511 µM | 0.326 µM | 0.0509 µM | 0.038 µM | 0.0236 µM | 0.0497 µM |  |  |  |  |  |  |  |  |  |  | 
C=CCn1cnc2c(=O)[nH]c(Nc3ccccc3)nc21 | > 100 µM | > 100 µM | > 100 µM | > 100 µM | > 100 µM | > 100 µM | > 100 µM | > 100 µM | > 100 µM | > 100 µM |  |  |  |  |  |  |  |  |  | 
NC(=S)NS(=O)(=O)c1ccc(F)cc1F | > 100 µM | > 100 µM | > 100 µM | > 100 µM | > 100 µM | > 100 µM | > 100 µM | > 100 µM | > 100 µM | > 100 µM |  |  |  |  |  |  |  |  |  | 
O=C(CCOS(=O)(=O)CF)N1CCN(C(=O)CCOS(=O)(=O)CF)CC1 | > 100 µM | > 100 µM | > 100 µM | 29.6 µM | > 100 µM | > 100 µM | > 100 µM | > 90.1 µM | > 56.7 µM | > 100 µM |  |  |  |  |  |  |  |  |  | 
O=C(O)Cn1c2c(c3c(O)cccc31)C(=O)c1ccccc1-2 | > 100 µM | > 100 µM | > 100 µM | > 100 µM | > 100 µM | > 100 µM | > 100 µM | > 100 µM | > 100 µM | > 100 µM | > 100 µM | > 100 µM | > 100 µM | > 100 µM | > 100 µM | > 100 µM | > 100 µM | > 100 µM | > 100 µM | > 100 µM
